Tests used:
db/db mice = experiment: Investigation with db/db mice (blood glucose and lipids); type: in vivo, mouse; details: for Glucose Diff. D o − D 12 / HDL-cholesterol Diff. D o − D 12 / Total cholesterol Diff. D o − D 12 / Triglycerides Diff. D o − D 12: change day 0 to day 12; for Glucose D o / HDL-cholesterol D o / Total cholesterol D o / Triglycerides D o: day 0; for Glucose D 12 / HDL-cholesterol D 12 / Total cholesterol D 12 / Triglycerides D 12: day 12; for Glucose D-4 / HDL-cholesterol D-4 / Total cholesterol D-4 / Triglycerides D-4: day −4
Protocol: The following compounds are investigated and compared to placebo (vehicle control).
The mentioned 3 compounds are tested in db/db mice during a time when diabetes is in a rapid developing stage. […] Each dosage group and the vehicle group comprise 7 mice. The suspensions used are prepared with peroxide free arachis oil as vehicle. Blood samples are collected by retro-orbital bleeding at days −4, 0 and 12. The blood levels of glucose, triglycerides, total cholesterol, and HDL-cholesterol are determined.
For evaluation of efficacy, the difference between the values of glucose, triglycerides, total cholesterol and HDL-cholesterol changing from day 0 to day 12 is determined and expressed in %. […] Overall evaluation consists in determining the efficacy of the compounds by calculating the whole extent of the effect expressed in %. […] This value is considered as a valuable indicator for the efficacy of the investigated compounds administered in a tolerated dose.

[1] = tested on: myeloperoxidase (MPO) activity; experiment: Acute inflammation of mouse ears, MPO activity; type: in vivo, C57BL/6 mice; details: 9-cis RA 0.05% alone, topical, 4 d
Protocol: […] mice of the C57BL/6 strain are used. Inflammation is induced on mouse ears with either AtRA, 9-cis RA or TPA by topical application. Inflammation is measured objectively by determination of the activity of myeloperoxidase (MPO) being directly correlated to the infiltration of polymorphonuclear white blood cells and by the determination of mRNA expression of c-jun, a protein implicated in the AP-1 transduction pathway according to known methods, see e.g. P. L. Stanley et al., Skin Pharmacol. 4, 262-271 (1991) (MPO assay), N. Basset-Sequin et al., J. Invest. Dermatol. 94, 418-422 (1990), F. J. Rauscher et al., Cell 52, 471-480 […], P. Sassone-Corn et al., Nature 326, 507-510 (1987), and M. Pfahl, Endocr. Rev. 14, 651-658, 1993, which are incorporated by reference regarding the experimental method.
In the “acute inflammation” test, mice are treated topically (epicutaneously), orally or intraperitoneally, daily for 4 days. In the “semi chronic inflammation” test, mice are treated topically according to the schedules given below. For each experiment, a group of at least 4 mice of both sexes are used in the defined condition, regarding placebo, vehicle control, compound, topical formulation, oral formulation, dosage and concentration. The topical vehicle consists of ethanol/PEG 400/water (3:1:1).
The anti-inflammatory effect of topical RXR antagonist compound 15 is tested by determination of myeloperoxidase activity in % of vehicle treated controls. For induction of inflammation 9-cis RA or TPA are applied topically to the skin, daily for 4 days. The RXR antagonist compound 15 (see Table 1) is administered topically one hour after the application of the inflammation inducing agent. The mice are sacrified 24 hours after the last treatment.

MMP-1 mRNA = MMP-1 mRNA in synovial fibroblasts (real time PCR); type: cell-based, human
Protocol: Furthermore, it is determined whether this is accompanied by a modulation in the accumulation of the mRNA encoding catabolic enzyme matrix metalloproteinase-1 (MMP-1), responsible for degradation of human cartilage and consequently joint destruction in man. Adherent synovial fluid cells taken from a patient with RA are used after 5 passages in an in vitro assay for cartilage destruction. The cells incubated in flasks coated with 0.1% (0.1 g/100 ml) human cartilage powder are fixed using Matrigel® (BD Biosciences, Becton, Dickinson & Co., Boston, Mass., USA).
This is conducted in the presence or absence of IL-1β (100 pg/ml).

[2] = 30 mg/kg/day group versus vehicle group

CC1=C(/C=C/C2=C(/C=C/C(C)=C/C(=O)O)CCCCC2)C(C)(C)CCC1 [Compound 1, (2E,4E)-3-methyl-5-[2-[(E)-2-(2,6,6-trimethyl-1-cyclohexen-1-yl)ethenyl]-1-cyclohepten-1-yl]-2,4-pentadienoic acid]
Glucose Diff. D o − D 12 (db/db mice; 0.3 mg/kg/day i.p.): +57.5% | HDL-cholesterol Diff. D o − D 12 (db/db mice; 0.3 mg/kg/day i.p.): −3.2% | Total cholesterol Diff. D o − D 12 (db/db mice; 0.3 mg/kg/day i.p.): −14.1% | Triglycerides Diff. D o − D 12 (db/db mice; 0.3 mg/kg/day i.p.): +25.4% | Glucose D o (db/db mice; 0.3 mg/kg/day i.p.): 207 mg/dL | HDL-cholesterol D o (db/db mice; 0.3 mg/kg/day i.p.): 3.78 mmol/L | Total cholesterol D o (db/db mice; 0.3 mg/kg/day i.p.): 4.27 mmol/L | Triglycerides D o (db/db mice; 0.3 mg/kg/day i.p.): 1.73 mmol/L | Glucose D 12 (db/db mice; 0.3 mg/kg/day i.p.): 326 mg/dL | HDL-cholesterol D 12 (db/db mice; 0.3 mg/kg/day i.p.): 2.69 mmol/L | Total cholesterol D 12 (db/db mice; 0.3 mg/kg/day i.p.): 3.67 mmol/L | Triglycerides D 12 (db/db mice; 0.3 mg/kg/day i.p.): 2.17 mmol/L | Glucose D-4 (db/db mice; 0.3 mg/kg/day i.p.): 138 mg/dL | HDL-cholesterol D-4 (db/db mice; 0.3 mg/kg/day i.p.): 2.65 mmol/L | Total cholesterol D-4 (db/db mice; 0.3 mg/kg/day i.p.): 4.26 mmol/L | Triglycerides D-4 (db/db mice; 0.3 mg/kg/day i.p.): 1.83 mmol/L | Glucose levels (in words) (db/db mice; 3 mg/kg/day): no significant change | HDL-cholesterol levels (in words) (db/db mice; 3 mg/kg/day): not influenced | Triglyceride levels (in words) (db/db mice; 3 mg/kg/day): hardly influenced | Glucose Diff. D o − D 12 (db/db mice; 3.0 mg/kg/day i.p.): +40.7% | HDL-cholesterol Diff. D o − D 12 (db/db mice; 3.0 mg/kg/day i.p.): −19.6% | Total cholesterol Diff. D o − D 12 (db/db mice; 3.0 mg/kg/day i.p.): −19.9% | Triglycerides Diff. D o − D 12 (db/db mice; 3.0 mg/kg/day i.p.): +15.3% | Glucose D o (db/db mice; 3.0 mg/kg/day i.p.): 194 mg/dL | HDL-cholesterol D o (db/db mice; 3.0 mg/kg/day i.p.): 3.37 mmol/L | Total cholesterol D o (db/db mice; 3.0 mg/kg/day i.p.): 4.68 mmol/L | Triglycerides D o (db/db mice; 3.0 mg/kg/day i.p.): 1.83 mmol/L | Glucose D 12 (db/db mice; 3.0 mg/kg/day i.p.): 273 mg/dL | HDL-cholesterol D 12 (db/db mice; 3.0 mg/kg/day i.p.): 2.71 mmol/L | Total cholesterol D 12 (db/db mice; 3.0 mg/kg/day i.p.): 3.75 mmol/L | Triglycerides D 12 (db/db mice; 3.0 mg/kg/day i.p.): 2.11 mmol/L | Glucose D-4 (db/db mice; 3.0 mg/kg/day i.p.): 155 mg/dL | HDL-cholesterol D-4 (db/db mice; 3.0 mg/kg/day i.p.): 2.53 mmol/L | Total cholesterol D-4 (db/db mice; 3.0 mg/kg/day i.p.): 4.25 mmol/L | Triglycerides D-4 (db/db mice; 3.0 mg/kg/day i.p.): 1.85 mmol/L | Glucose levels (in words) (db/db mice; 30 mg/kg/day): decrease markedly | HDL-cholesterol levels (in words) (db/db mice; 30 mg/kg/day): markedly increased | Total cholesterol levels (in words) (db/db mice; 30 mg/kg/day): slightly higher | Triglyceride levels (in words) (db/db mice; 30 mg/kg/day): decreasing significantly | Overall extent of the effect on blood levels of Glucose (db/db mice; [2]): −62.5% | Overall extent of the effect on blood levels of HDL-cholesterol (db/db mice; [2]): +18.4% | Overall extent of the effect on blood levels of Total cholesterol (db/db mice; [2]): −16.6% | Overall extent of the effect on blood levels of Triglycerides (db/db mice; [2]): −21.5% | Glucose Diff. D o − D 12 (db/db mice; 30 mg/kg/day i.p.): −12.3% | HDL-cholesterol Diff. D o − D 12 (db/db mice; 30 mg/kg/day i.p.): +14.6% | Total cholesterol Diff. D o − D 12 (db/db mice; 30 mg/kg/day i.p.): +7.8% | Triglycerides Diff. D o − D 12 (db/db mice; 30 mg/kg/day i.p.): +0.6% | Glucose D o (db/db mice; 30 mg/kg/day i.p.): 335 mg/dL | HDL-cholesterol D o (db/db mice; 30 mg/kg/day i.p.): 2.94 mmol/L | Total cholesterol D o (db/db mice; 30 mg/kg/day i.p.): 4.21 mmol/L | Triglycerides D o (db/db mice; 30 mg/kg/day i.p.): 1.7 mmol/L | Glucose D 12 (db/db mice; 30 mg/kg/day i.p.): 206 mg/dL | HDL-cholesterol D 12 (db/db mice; 30 mg/kg/day i.p.): 3.37 mmol/L | Total cholesterol D 12 (db/db mice; 30 mg/kg/day i.p.): 4.54 mmol/L | Triglycerides D 12 (db/db mice; 30 mg/kg/day i.p.): 1.71 mmol/L | Glucose D-4 (db/db mice; 30 mg/kg/day i.p.): 174 mg/dL | HDL-cholesterol D-4 (db/db mice; 30 mg/kg/day i.p.): 2.46 mmol/L | Total cholesterol D-4 (db/db mice; 30 mg/kg/day i.p.): 4.37 mmol/L | Triglycerides D-4 (db/db mice; 30 mg/kg/day i.p.): 2.13 mmol/L

CC1=C(/C=C/C(C)=C\C=C\C(C)=C\C(=O)O)C(C)(C)CCC1 [9-cis RA, 9-cis retinoic acid, reference compound]
MPO activity (% vehicle treated mice) [1]: 647 ± 142 % vehicle treated mice | MMP-1 mRNA, fold increase of baseline value (MMP-1 mRNA; 10^−7 M, after 24 hours): 2.60 relative units | MMP-1 mRNA, fold increase of baseline value (MMP-1 mRNA; 10^−8 M, 0 hours): 1 relative units | MMP-1 mRNA, fold increase of baseline value (MMP-1 mRNA; 10^−8 M, 2 hours): 0.98 relative units | MMP-1 mRNA, fold increase of baseline value (MMP-1 mRNA; 10^−8 M, 6 hours): 1.31 relative units | MMP-1 mRNA, fold increase of baseline value (MMP-1 mRNA; 10^−8 M, 12 hours): 3.39 relative units | MMP-1 mRNA, fold increase of baseline value (MMP-1 mRNA; 10^−8 M, 24 hours): 3.79 relative units | MMP-1 mRNA, fold increase of baseline value (MMP-1 mRNA; 10^−8 M, 48 hours): 1.47 relative units | MMP-1 mRNA, fold increase of baseline value (MMP-1 mRNA; 10^−8 M, after 24 hours): 3.39 relative units | MMP-1 mRNA, fold increase of baseline value (MMP-1 mRNA; 10^−9 M, after 24 hours): 1.54 relative units

Source: patent US20080255206A1, “Rxr Agonists and Antagonists, Alone or in Combination with Ppar Ligands, in the Treatment of Metabolic and Cardiovascular Diseases” (priority 2005, published 2008)
